“And” between values parts separate entries of the source, which are not always exact repeats. Equal values may be shown once. “Also recorded” adds a separate entry of the source.
Legend:
[1] = Brain penetration of oral 3-SPA in male SD rats (brain, CSF, plasma); type: in vivo, Sprague-Dawley rats; conditions: oral 30 mg/kg
Method: A separate group of animals was dosed orally at 30 mg/kg and terminal brain, CSF and plasma samples were collected at 1, 2, 6, and 24 hr (3 animals for each time point) for bioanalyses of 3-SPA in brain and CSF, and to estimate brain penetration relative to plasma concentrations. The in-life study was performed at Agilux Laboratories (Worcester, MA) following quality standards in line with Good Laboratory Practice. Bioanalyses of rat plasma, CSF and brain was preformed using LC-MS/MS at Nextcea. Prior to processing rat brains for bioanalysis, the brains were perfused to remove pooled blood. Pharmacokinetic data analyses were conducted using Winnonlin Professional v5.0.1 (Pharsight, Mountain View, CA).
The plasma concentration of a single dose of 3-SPA, dissolved in saline as a clear solution, administered orally and intravenously to rats at a dose level of 30 mg/kg and 10 mg/kg, respectively, are shown in FIG. 9. Brain, CSF and corresponding plasma levels after a single oral dose of dose of 30 mg/kg of 3-SPA at 1, 2, 6, and 24 hr are shown in FIG. 10. Mean PK curves were used for calculation of pharmacokinetic parameters.

[2] = target: T1, recombinant human Aβ42 peptide (Homo sapiens, UniProt P05067); assay: Ion mobility mass spectrometry (IMS MS) anti-Aβ42 oligomer activity / binding study; type: biochemical; parameters: key to Presence of Aβ42 Pentamer / Presence of Aβ42 Hexamer / Presence of Aβ42 Decamer / Presence of Aβ42 Dimer / Presence of Aβ42 Trimer / Presence of Aβ42 Tetramer: Y = yes, presence of oligomer species; N = no presence of oligomer species
T1 construct: recombinant human Aβ42 peptide; purchased BioLegend 843801
Method: The conditions used for mass spectrometry, using a Waters Synapt G2-S, were as follows: positive polarity in sensitivity mode, capillary=2.5 kV, nebulizer=2 mbar, source temperature=80° C., desolvation temperature=60° C., sample cone setting=35 V, source offset setting=60 V, and mass range=500 to 4000 m/z. These conditions were maintained throughout the study to ensure consistency of the data and to avoid influencing the detection of oligomers due to preferential ionization conditions.
Samples were directly infused into the mass spectrometer at a flow rate of 10 μL/min using a Protea PM-1000 Syringe Pump and Hamilton 1 mL Syringe. The data acquisition of the amyloid peptide was performed using a Waters Synapt G2-S quadrupole time of flight mass spectrometer (Q-TOF MS) with traveling wave ion mobility (Waters Corp., Milford, MA). The data were acquired using the systems sensitivity mode to allow for the detection of the less abundant oligomers. Samples were infused at room temperature. The IMS MS studies were conducted at Protea, Inc. (Morgantown, WV).
1 mg of recombinant human Aβ42 peptide from BioLegend (99% purity, cat #843801) was reconstituted in 200 μL of Fisher Optima LC/MS grade water (cat #W6-1) and vortexed vigorously for 2 minutes to solubilize the peptide creating a 5 mg/mL solution. Samples were then diluted to a final concentration of 22 pmol/μL prior to incubation. The sample mixtures were then incubated at room temperature for 0, 4 and 24 hours. After the acquisition of incubated samples was completed, the raw data were analyzed using the Waters MassLynx v2.4 suite with DriftScover v2.7 to visualize drift times for the peptide.
Aβ42 species characterization using IMS MS was performed by direct infusion at 22 pmol/μL in water. The peptide was prepared in water to maintain the native state conformation of the peptide and ion mobility data acquisition was performed to detect and characterize the conformational changes of the native state monomer and any oligomers that may have formed during the incubation.
The data acquisition for Aβ42 peptide was performed using a Waters Synapt G2-S quadrupole time of flight mass spectrometer (Q-TOF MS) with traveling wave ion mobility (Waters Corp., Milford, MA). The data were acquired using the systems sensitivity mode to allow for the detection of the less abundant oligomers. Samples were infused at room temperature as above.
1 mg of 3-SPA was reconstituted in 1 mL of Fisher Optima LC/MS grade water (cat #W6-1) and vortexed vigorously for 2 minutes until completely dissolved. The sample was then diluted to create […], and 22,000 pmol/μL solutions to perform a 100-fold, and 1,000-fold molar excess for the binding experiments with Aβ42 peptide.
1 mg of recombinant human Aβ42 peptide was reconstituted in 200 μL of Fisher Optima LC/MS grade water and vortexed vigorously to solubilize to a 5 mg/mL solution. Samples were then diluted to their final concentrations prior to incubation. The sample mixtures were incubated at room temperature for 0, 4 and 24 hours, followed by analysis as described above.
To address the high conformational flexibility of Aβ42 and to characterize its interaction with 3-SPA, we used ion mobility mass spectrometry (IMS), with a quadrupole time of flight mass spectrometer (Q-TOF MS) with traveling wave ion mobility. Resulting effect of modulation of Aβ conformational space is the prevention of oligomer formation. We have found not only concentration dependency but also time-dependency of this anti-Aβ42 oligomeric effect of 3-SPA as indicated in FIG. 3 and FIG. 4. 100- vs 1,000-fold molar excess of 3-SPA over Aβ42 results in a different sub-species profile of inhibition of Aβ42 oligomer formation. The activity is also compared with the same excess dependency of tramiprosate.

[3] = 100:1 excess ratio compound:protein
[4] = 1000:1 excess ratio compound:protein

T1 sequence (P05067 672-713 limits assumed): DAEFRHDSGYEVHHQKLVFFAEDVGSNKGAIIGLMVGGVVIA

## O=C(O)CCS(=O)(=O)O [3-SPA, 3-sulfopropanoic acid]
[1]; Brain
  AUC 0-inf_obs: 33224.4 ng·h/mL
  AUC 0-t: 7586.5 ng·h/mL
  Cmax: 649.8 ng/mL
  t½: 64.07 h
[1]; CSF
  AUC 0-inf_obs: 726.2 ng·h/mL
  AUC 0-t: 463.6 ng·h/mL
  Cmax: 159.2 ng/mL
  t½: 3.56 h
[1]; Plasma
  AUC 0-inf_obs: 30099.2 ng·h/mL
  AUC 0-t: 30001.7 ng·h/mL
  Cmax: 5714.6 ng/mL
  t½: 3.03 h
[1]
  CSF/brain AUC %: 6.1%
[1]; 30 mg/kg
  Brain/Plasma (AUC %), brain penetration: 25% and 25.3%
[2]; [3]
  Presence of Aβ42 Decamer: N
  Presence of Aβ42 Dimer: Y
  Presence of Aβ42 Hexamer: Y
  Presence of Aβ42 Pentamer: Y
  Presence of Aβ42 Tetramer: Y
  Presence of Aβ42 Trimer: Y
[2]; [4]
  Presence of Aβ42 Decamer: N
  Presence of Aβ42 Dimer: N
  Presence of Aβ42 Hexamer: N
  Presence of Aβ42 Pentamer: Y
  Presence of Aβ42 Tetramer: N
  Presence of Aβ42 Trimer: N
[2]; 4 hr incubation, ratio 1:1000
  Inhibition of formation of Aβ42 oligomers (in words): inhibits the formation of oligomers with the exception of dimers, trimers and pentamers; also recorded: Detection of Aβ42 dimers, trimers and pentamers
[2]; 24 hours incubation, 1,000-fold excess
  Inhibition of formation of Aβ42 oligomers (in words): Near complete prevention of formation of Aβ42 oligomers except for pentamers; also recorded: the only oligomeric species not inhibited were pentamers of Aβ42; also recorded: Only pentamers were detected
